Experimental findings from US12661410B2, “Compounds for targeted degradation of RET” (C4 Therapeutics, Inc., priority 2020, dated 2026) are described below.

Where a chain is given by its changes, count along the chain named.

Experiment [1] has as its target T1, RET (658-1114) (Homo sapiens, UniProt P07949).
T1 construct: 658-1114; expressed in transfected cells; host or cells: 293T.144 (293T cells, generated in-house)
T1 sequence (P07949 658-1114): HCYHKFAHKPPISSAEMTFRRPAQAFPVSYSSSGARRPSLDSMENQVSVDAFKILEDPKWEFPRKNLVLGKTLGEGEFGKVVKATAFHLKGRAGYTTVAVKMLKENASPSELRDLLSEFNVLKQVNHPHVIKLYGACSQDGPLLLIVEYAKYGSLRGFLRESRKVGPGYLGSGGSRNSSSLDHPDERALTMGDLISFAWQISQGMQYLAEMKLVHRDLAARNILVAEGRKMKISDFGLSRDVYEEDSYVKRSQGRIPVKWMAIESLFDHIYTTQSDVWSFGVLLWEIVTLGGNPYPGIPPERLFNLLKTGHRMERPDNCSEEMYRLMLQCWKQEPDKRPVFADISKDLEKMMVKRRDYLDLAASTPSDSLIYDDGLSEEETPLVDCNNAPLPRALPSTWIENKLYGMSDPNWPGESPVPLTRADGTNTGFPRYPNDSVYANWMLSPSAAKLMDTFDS
The experiment can be described thus: HiBiT-Degradation, RET wild-type degradation assay (Nano-Glo HiBiT Lytic), 293T.144 cells. The class given is cell-based. The following applies: for Emax / DC50: 6.0 hours; for Emax: % remaining protein, read-out: 293T.144 RET (658-1114) 6.0 hours (Emax); for DC50: half-maximal degradation concentration, read-out: 293T.144 RET (658-1114) 6.0 hours (DC50). In outline: (§1)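 HEK293T lines expressing HiBiT-tagged RET kinase domain, wild-type (293T.144) or G810R (293T.165), treated 6 h in duplicate, 11-point half-log series from 10 μM top. Lytic HiBiT luminescence read; DC50 and Emax (% protein remaining) from dose-response curves.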
(In general: With HiBiT, luminescence reflects the tagged protein that the partner subunit can reach.)

The target of experiment [2] is T2, RET(KD: 658-1114 G810R) (Homo sapiens, UniProt P07949, G810R).
T2 construct: 658-1114; expressed in transfected cells; host or cells: 293T.165 (293T cells, generated in-house)
T2 sequence (P07949 658-1114 G810R): T1 sequence (P07949 658-1114) with G153R
The experiment can be described thus: HiBiT-Degradation, RET G810R degradation assay (Nano-Glo HiBiT Lytic), 293T.165 cells. It counts as cell-based. The following applies: for Emax / DC50: 6.0 hours; for Emax: % remaining protein, read-out: 293T.165 RET(KD: 658-1114 G810R) 6.0 hours (Emax); for DC50: half-maximal degradation concentration, read-out: 293T.165 RET(KD: 658-1114 G810R) 6.0 hours (DC50). In outline:
as §1

For orientation: Emax means the greatest response seen or fitted, relative to the assay's reference. As a reminder, the DC50 is the midpoint of the concentration-degradation curve. Consider `CCC1(NC(=O)c2ncccc2Cl)CCN(c2ccc(-c3nc(-c4cnn([C@H]5CC[C@@H](N6CCN(c7ccc8c(N9CCC(=O)NC9=O)nn(C)c8c7F)CC6)CC5)c4)cn4ncc(C#N)c34)cn2)CC1` (single isomer, unassigned) [Compound 170, 3-Chloro-N-(1-(5-(3-cyano-6-(1-((1s, 4s)-4-(4-(3-(2,4-dioxotetrahydropyrimidin-1(2H)-yl)-7-fluoro-1-methyl-1H-indazol-6-yl)piperazin-1-yl)cyclohexyl)-1H-pyrazol-4-yl)pyrazolo[1,5-a]pyrazin-4-yl)pyridin-2-yl)-4-ethylpiperidin-4-yl)picolinamide], for which, in experiment [1], the “293T.144 RET (658-1114) 6.0 hours (IP) [nM]” value (“293T.144 RET” for short) is on record as “++++ (<50 nM = ++++)”, the Emax was < 30% and the half-maximal degradation concentration (DC50) is < 50 nM. Moreover, in experiment [2], the “293T.165 RET(KD: 658-1114 G810R) 6.0 hours (IP) [nM]” value is “++++ (<50 nM = ++++)”, the Emax was < 30% and the half-maximal degradation concentration (DC50) was < 100 nM.
Turning to `N#Cc1cnn2cc(-c3cnn([C@H]4CC[C@@H](N5CCN(c6ccc(N[C@H]7CCC(=O)NC7=O)cc6F)CC5)CC4)c3)nc(-c3ccc(N4CC5CC(C4)N5C(=O)c4c(F)cccc4F)nc3)c12` (single isomer, unassigned) [Compound 171], in experiment [1], the “293T.144 RET” value is recorded as “++++ (<50 nM = ++++)”, the Emax is < 30% and the half-maximal degradation concentration (DC50) was < 50 nM. In addition, in experiment [2], the “293T.165 RET(KD: 658-1114 G810R) 6.0 hours (IP) [nM]” value is “++++ (<50 nM = ++++)”, the maximal response (Emax) was < 30% and the half-maximal degradation concentration (DC50) is < 50 nM.
In the case of `N#Cc1cnn2cc(-c3cnn([C@H]4CC[C@@H](N5CCN(c6ccc(N[C@@H]7CCC(=O)NC7=O)cc6F)CC5)CC4)c3)nc(-c3ccc(N4CC5CC(C4)N5C(=O)c4c(F)cccc4F)nc3)c12` (single isomer, unassigned) [Compound 172], in experiment [1], the “293T.144 RET” value is on record as “++++ (<50 nM = ++++)”, the maximal response (Emax) is < 30% and the DC50 is < 50 nM. Also, in experiment [2], the “293T.165 RET(KD: 658-1114 G810R) 6.0 hours (IP) [nM]” value was “++++ (<50 nM = ++++)”, the Emax is < 30% and the half-maximal degradation concentration (DC50) was < 50 nM.
For the molecule `N#Cc1cnn2cc(-c3cnn([C@H]4CC[C@@H](N5CCN(c6ccc(NC7CCC(=O)NC7=O)cc6F)CC5)CC4)c3)nc(-c3ccc(N4CC5CC(C4)N5CC4CCC(F)(F)CC4)nc3)c12` (single isomer, unassigned) [Compound 178, 4-(6-(6-((4,4-Difluorocyclohexyl)methyl)-3,6-diazabicyclo[3.1.1]heptan-3-yl)pyridin-3-yl)-6-(1-((1s, 4s)-4-(4-(4-((2,6-dioxopiperidin-3-yl)amino)-2-fluorophenyl)piperazin-1-yl)cyclohexyl)-1H-pyrazol-4-yl)pyrazolo[1,5-a]pyrazine-3-carbonitrile], in experiment [1], the “293T.144 RET” value is listed as “++++ (<50 nM = ++++)”, the Emax was < 30% and the 50% degradation concentration (DC50) was < 50 nM. Further, in experiment [2], the “293T.165 RET(KD: 658-1114 G810R) 6.0 hours (IP) [nM]” value is “++++ (<50 nM = ++++)”, the Emax is < 30% and the DC50 was < 50 nM.
Take `N#Cc1cnn2cc(-c3cnn([C@H]4CC[C@H](N5CCC(c6ccc(N[C@H]7CCC(=O)NC7=O)cc6F)CC5)CC4)c3)nc(-c3ccc(N4CCC5(CC4)OCc4cccnc45)nc3)c12` (single isomer, unassigned) [Compound 179]: in experiment [1], the “293T.144 RET” value was “++++ (<50 nM = ++++)”, the maximal response (Emax) is < 30% and the DC50 is < 50 nM. Further, in experiment [2], the “293T.165 RET(KD: 658-1114 G810R) 6.0 hours (IP) [nM]” value is listed as “++++ (<50 nM = ++++)”, the maximal response (Emax) was < 30% and the DC50 was < 50 nM.
As to `N#Cc1cnn2cc(-c3cnn([C@H]4CC[C@H](N5CCC(c6ccc(N[C@@H]7CCC(=O)NC7=O)cc6F)CC5)CC4)c3)nc(-c3ccc(N4CCC5(CC4)OCc4cccnc45)nc3)c12` (single isomer, unassigned) [Compound 180], in experiment [1], the “293T.144 RET” value is listed as “++++ (<50 nM = ++++)”, the maximal response (Emax) is < 30% and the half-maximal degradation concentration (DC50) is < 50 nM. For the same molecule, in experiment [2], the “293T.165 RET(KD: 658-1114 G810R) 6.0 hours (IP) [nM]” value was “++++ (<50 nM = ++++)”, the maximum response (Emax) is < 30% and the 50% degradation concentration (DC50) was < 50 nM.
As to `CCC1(C(=O)NC2CCC2)CCN(c2ccc(-c3nc(-c4cnn(C5CCN([C@H]6CCN(c7ccc(N[C@H]8CCC(=O)NC8=O)cc7F)CC6(F)F)CC5)c4)cn4ncc(C#N)c34)cn2)CC1` (single isomer, unassigned) [Compound 191], in experiment [1], the “293T.144 RET” value is “++++ (<50 nM = ++++)”, the maximal effect (Emax) is < 30% and the 50% degradation concentration (DC50) was < 50 nM. Further, in experiment [2], the “293T.165 RET(KD: 658-1114 G810R) 6.0 hours (IP) [nM]” value is given as “+++ (<100 nM = +++)”, the maximal effect (Emax) is < 30% and the DC50 is < 100 nM.
In the case of `CCC1(C(=O)NC2CCC2)CCN(c2ccc(-c3nc(-c4cnn(C5CCN([C@@H]6CCN(c7ccc(N[C@@H]8CCC(=O)NC8=O)cc7F)CC6(F)F)CC5)c4)cn4ncc(C#N)c34)cn2)CC1` (single isomer, unassigned) [Compound 192], in experiment [1], the “293T.144 RET” value was “++++ (<50 nM = ++++)”, the maximal response (Emax) was < 30% and the 50% degradation concentration (DC50) is < 50 nM. In addition, in experiment [2], the “293T.165 RET(KD: 658-1114 G810R) 6.0 hours (IP) [nM]” value is “+++ (<100 nM = +++)”, the maximal effect (Emax) is < 30% and the DC50 is < 100 nM.
On to `CCC1(C(=O)NC(C)C)CCN(c2ccc(-c3cc(-c4cnn([C@H]5CC[C@H](N6CCC(c7ccc(N[C@H]8CCC(=O)NC8=O)cc7F)CC6)CC5)c4)cn4ncc(C#N)c34)cn2)CC1` (single isomer, unassigned) [Compound 194], for which, in experiment [1], the “293T.144 RET” value is recorded as “++++ (<50 nM = ++++)”, the Emax was < 30% and the DC50 is < 50 nM. Also, in experiment [2], the “293T.165 RET(KD: 658-1114 G810R) 6.0 hours (IP) [nM]” value is “++++ (<50 nM = ++++)”, the Emax was < 30% and the DC50 was < 50 nM.
Consider `CCC1(C(=O)NC(C)C)CCN(c2ccc(-c3cc(-c4cnn([C@H]5CC[C@H](N6CCC(c7ccc(N[C@@H]8CCC(=O)NC8=O)cc7F)CC6)CC5)c4)cn4ncc(C#N)c34)cn2)CC1` (single isomer, unassigned) [Compound 195], for which, in experiment [1], the “293T.144 RET” value is given as “++++ (<50 nM = ++++)”, the maximal response (Emax) was < 30% and the 50% degradation concentration (DC50) was < 50 nM. In experiment [2], the “293T.165 RET(KD: 658-1114 G810R) 6.0 hours (IP) [nM]” value is “++++ (<50 nM = ++++)”, the Emax is < 30% and the DC50 was < 50 nM.
Consider `CO[C@@H](C(=O)N1CCN(c2ccc(-c3nc(-c4cnn([C@H]5CC[C@@H](N6CCN(c7c(F)cc(NC8CCC(=O)NC8=O)cc7F)CC6)CC5)c4)cn4ncc(C#N)c34)cn2)CC1)c1ccccc1` (single isomer, unassigned) [Compound 201], for which, in experiment [1], the “293T.144 RET” value is recorded as “++++ (<50 nM = ++++)”, the Emax is < 30% and the half-maximal degradation concentration (DC50) is < 50 nM. In addition, in experiment [2], the “293T.165 RET(KD: 658-1114 G810R) 6.0 hours (IP) [nM]” value is given as “++++ (<50 nM = ++++)”, the Emax was < 30% and the half-maximal degradation concentration (DC50) is < 50 nM.
On to `N#Cc1cnn2cc(-c3cnn([C@H]4CC[C@@H](N5CCN(c6c(F)cc(NC7CCC(=O)NC7=O)cc6F)CC5)CC4)c3)cc(-c3ccc(N4CCC5(CC4)OCc4cccnc45)nc3)c12` (single isomer, unassigned) [Compound 202, 4-(6-(5H-spiro[furo[3,4-b]pyridine-7,4′-piperidin]-1′-yl)pyridin-3-yl)-6-(1-((1s, 4s)-4-(4-(4-((2,6-dioxopiperidin-3-yl)amino)-2,6-difluorophenyl)piperazin-1-yl)cyclohexyl)-1H-pyrazol-4-yl)pyrazolo[1,5-a]pyridine-3-carbonitrile], for which, in experiment [1], the “293T.144 RET” value was “++++ (<50 nM = ++++)”, the maximal response (Emax) was < 30% and the DC50 was < 50 nM. Moreover, in experiment [2], the “293T.165 RET(KD: 658-1114 G810R) 6.0 hours (IP) [nM]” value is reported as “++++ (<50 nM = ++++)”, the Emax is < 30% and the DC50 is < 50 nM.
